Experimental data reported in ChEMBL document CHEMBL5346941, “Design, synthesis and evaluation of novel monoamine oxidase B (MAO-B) inhibitors with improved pharmacokinetic properties for Parkinson's disease” (Eur J Med Chem, 2023).

Assays:
[1] = target: T1, Amine oxidase [flavin-containing] B (Homo sapiens, UniProt P27338); experiment: Inhibition of recombinant human MAO-B expressed in Sf9 cells using p-tyramine as substrate preincubated for 15 mins followed by substrate addition and measured after 60 mins by luciferin based luminescence analysis
T1 sequence (P27338 whole entry): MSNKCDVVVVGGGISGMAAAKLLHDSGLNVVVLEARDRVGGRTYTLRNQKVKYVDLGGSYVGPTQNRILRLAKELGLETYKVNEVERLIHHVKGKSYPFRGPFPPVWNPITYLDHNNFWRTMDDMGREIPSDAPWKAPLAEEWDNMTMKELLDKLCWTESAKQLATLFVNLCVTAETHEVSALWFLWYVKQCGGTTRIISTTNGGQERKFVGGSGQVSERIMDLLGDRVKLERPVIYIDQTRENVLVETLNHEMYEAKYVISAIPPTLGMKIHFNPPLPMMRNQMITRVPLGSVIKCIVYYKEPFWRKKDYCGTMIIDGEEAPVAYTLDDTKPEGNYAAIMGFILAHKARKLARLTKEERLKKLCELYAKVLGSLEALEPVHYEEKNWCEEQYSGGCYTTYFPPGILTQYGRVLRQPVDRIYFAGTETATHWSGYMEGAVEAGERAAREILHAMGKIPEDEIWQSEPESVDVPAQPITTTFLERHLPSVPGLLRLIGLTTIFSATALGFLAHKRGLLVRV

[2] = target: T2, Amine oxidase [flavin-containing] A (Homo sapiens, UniProt P21397); experiment: Inhibition of recombinant human MAO-A expressed in Sf9 cells using […] as substrate preincubated for 15 mins followed by substrate addition and measured after 60 mins by luciferin based luminescence analysis
T2 sequence (P21397 whole entry): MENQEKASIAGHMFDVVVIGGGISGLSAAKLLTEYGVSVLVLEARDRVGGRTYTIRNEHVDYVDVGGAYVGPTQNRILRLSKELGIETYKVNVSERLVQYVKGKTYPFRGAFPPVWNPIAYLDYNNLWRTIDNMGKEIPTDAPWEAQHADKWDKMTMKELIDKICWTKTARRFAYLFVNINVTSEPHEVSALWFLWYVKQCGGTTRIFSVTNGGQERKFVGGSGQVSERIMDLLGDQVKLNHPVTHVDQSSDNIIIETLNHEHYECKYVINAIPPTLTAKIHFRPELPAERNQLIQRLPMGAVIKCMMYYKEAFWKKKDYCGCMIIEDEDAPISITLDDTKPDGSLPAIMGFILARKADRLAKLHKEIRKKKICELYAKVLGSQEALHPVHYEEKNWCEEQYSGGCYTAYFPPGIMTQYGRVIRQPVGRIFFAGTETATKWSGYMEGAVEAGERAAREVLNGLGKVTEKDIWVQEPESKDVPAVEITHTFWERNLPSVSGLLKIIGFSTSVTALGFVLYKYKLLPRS

[3] = Cmax in fasted Sprague-Dawley rat at 1 mg/kg, iv measured for 24 hrs; type: ADME, organism-based; design: dose 1 mg/kg, time 24 hrs, route iv; settings: Sprague-Dawley, in vivo, read-out: Cmax
[4] = Cmax in fasted Sprague-Dawley rat at 5 mg/kg, IG measured for 24 hrs; type: ADME, organism-based; design: dose 5 mg/kg, time 24 hrs, route ig; settings: in vivo, po
[5] = AUC (0 to t) in fasted Sprague-Dawley rat at 5 mg/kg, IG measured for 24 hrs; type: ADME, organism-based; design: dose 5 mg/kg, time 24 hrs, route ig; settings: in vivo, po
[6] = Bioavailability in fasted Sprague-Dawley rat at 5 mg/kg, IG measured for 24 hrs; type: ADME, organism-based; settings: in vivo, po
[7] = Volume of distribution at steady state in fasted Sprague-Dawley rat at 1 mg/kg, iv measured for 24 hrs; type: ADME, organism-based; settings: in vivo, read-out: Vdss
[8] = Elimination half life in fasted Sprague-Dawley rat at 5 mg/kg, IG measured for 24 hrs; type: ADME, organism-based; settings: in vivo, po, read-out: beta t1/2 (converted)
[9] = AUC (0 to t) in fasted Sprague-Dawley rat at 1 mg/kg, iv measured for 24 hrs; type: ADME, organism-based; design: dose 1 mg/kg, time 24 hrs, route iv; settings: in vivo
[10] = Elimination half life in fasted Sprague-Dawley rat at 1 mg/kg, iv measured for 24 hrs; type: ADME, organism-based; settings: in vivo, read-out: beta t1/2 (converted)
[11] = Clearance in fasted Sprague-Dawley rat at 1 mg/kg, iv measured for 24 hrs; type: ADME, organism-based; settings: in vivo

Structure (SMILES) | IC50 [1] [µM] | IC50 [2] [µM] | Cmax [3] [ng/mL] | Cmax [4] [ng/mL] | AUC(0-t) at 24 h [5] [ng·h/mL] | bioavailability [6] [%] | Vd [7] [L/kg] | half-life [8] [min] | AUC(0-t) at 24 h [9] [ng·h/mL] | half-life [10] [min] | clearance [11] [mL/min/kg]
COc1ccccc1-c1cc2cc(CN3CC[C@H]3C(N)=O)ccc2o1 | 1.93 | > 10 |  |  |  |  |  |  |  |  | 
NC(=O)[C@@H]1C[C@H](F)CN1Cc1ccc2oc(-c3cccc(F)c3)cc2c1 | 0.055 | 4.89 | 237 | 409 | 1500 | 126 | 4.12 | 133 | 250 | 41.2 | 66.4
COc1ccc(-c2cc3cc(CN4CC[C@H]4C(N)=O)ccc3o2)cc1 | 7.39 | > 10 |  |  |  |  |  |  |  |  | 
NC(=O)[C@@H]1CCN1Cc1ccc2oc(-c3cccc(F)c3)cc2c1 | 0.086 | 4.91 | 204 | 185 | 527 | 56.3 | 4.96 | 63.6 | 188 | 47 | 87.9

More lines, now with the values ahead:

IC50 [1] [µM] | IC50 [2] [µM] | Cmax [3] [ng/mL] | Cmax [4] [ng/mL] | AUC(0-t) at 24 h [5] [ng·h/mL] | bioavailability [6] [%] | Vd [7] [L/kg] | half-life [8] [min] | AUC(0-t) at 24 h [9] [ng·h/mL] | half-life [10] [min] | clearance [11] [mL/min/kg] | Structure (SMILES)
5.01 | 6.2 |  |  |  |  |  |  |  |  |  | C[C@H](NCc1ccc2oc(-c3ccccc3F)cc2c1)C(N)=O
2.25 | 4.94 |  |  |  |  |  |  |  |  |  | C[C@H](NCc1ccc2oc(-c3cccc(F)c3)cc2c1)C(N)=O
0.948 | 3.54 |  |  |  |  |  |  |  |  |  | C[C@H](NCc1ccc2oc(-c3ccc(F)cc3)cc2c1)C(N)=O
0.038 | > 10 | 213 | 161 | 623 | 80.9 | 8.53 | 235 | 161 | 28.9 | 102 | NC(=O)[C@@H]1CCN1Cc1ccc2oc(-c3ccc(F)cc3)cc2c1
